Experiments:
[1] = molecular target: RAC-alpha serine/threonine-protein kinase (Homo sapiens) (UniProt P31749); test: Inhibition of wild-type human partial length AKT1 expressed in bacterial expression system assessed as residual activity at 1 uM by Kinomescan method relative to control
[2] = molecular target: Cyclin-dependent kinase 2/cyclin E1 (Homo sapiens) (UniProt P24864+P24941); test: Inhibition of wild-type human full length CDK2 (M1 to L298 residues)/Cyclin E expressed in bacterial expression system assessed as residual activity at 1 uM by Kinomescan method relative to control
[3] = molecular target: Casein kinase II subunit alpha' (Homo sapiens) (UniProt P19784); test: Inhibition of CK2a2 (unknown origin) assessed as residual activity at 1 uM by Kinomescan method relative to control
[4] = molecular target: Myotonin-protein kinase (Homo sapiens) (UniProt Q09013); test: Inhibition of wild-type human partial length DMPK (V47 to V415 residues) expressed in bacterial expression system assessed as residual activity at 1 uM by Kinomescan method relative to control
[5] = molecular target: Dual specificity tyrosine-phosphorylation-regulated kinase 4 (Homo sapiens) (UniProt Q9NR20); test: Inhibition of DYRK4 (unknown origin) assessed as residual activity at 1 uM by Kinomescan method relative to control
[6] = molecular target: Ephrin type-A receptor 7 (Homo sapiens) (UniProt Q15375); test: Inhibition of wild-type human partial length EPHA7 (Y608 to S912 residues) expressed in bacterial expression system assessed as residual activity at 1 uM by Kinomescan method relative to control
[7] = molecular target: Focal adhesion kinase 1 (Homo sapiens) (UniProt Q05397); test: Inhibition of wild-type human partial length FAK (D402 to R696 residues) expressed in bacterial expression system assessed as residual activity at 1 uM by Kinomescan method relative to control
[8] = molecular target: G protein-coupled receptor kinase 5 (Homo sapiens) (UniProt P34947); test: Inhibition of GRK5 (unknown origin) assessed as residual activity at 1 uM by Kinomescan method relative to control
[9] = molecular target: Serine/threonine-protein kinase haspin (Homo sapiens) (UniProt Q8TF76); test: Inhibition of wild-type human partial length HASPIN (I452 to K798 residues) expressed in mammalian expression system assessed as residual activity at 1 uM by Kinomescan method relative to control
[10] = molecular target: Tyrosine-protein kinase JAK1 (Homo sapiens) (UniProt P23458); test: Inhibition of wild-type human partial length JAK1 JH2 pseudokinase domain (R537 to D855 residues) expressed in mammalian expression system assessed as residual activity at 1 uM by Kinomescan method relative to control
[11] = molecular target: Serine/threonine-protein kinase 10 (Homo sapiens) (UniProt O94804); test: Inhibition of wild-type human partial length LOK (E16 to V314 residues) expressed in bacterial expression system assessed as residual activity at 1 uM by Kinomescan method relative to control
[12] = molecular target: MAP kinase-interacting serine/threonine-protein kinase 2 (Homo sapiens) (UniProt Q9HBH9); test: Inhibition of MNK2 (unknown origin) assessed as residual activity at 1 uM by Kinomescan method relative to control
[13] = molecular target: Ribosomal protein S6 kinase alpha-5 (Homo sapiens) (UniProt O75582); test: Inhibition of wild-type human partial length N-terminal RPS6KA5 kinase domain 1 expressed in bacterial expression system assessed as residual activity at 1 uM by Kinomescan method relative to control
[14] = molecular target: Serine/threonine-protein kinase 3 (Homo sapiens) (UniProt Q13188); test: Inhibition of wild-type human partial length MST2 (D17 to E318 residues) expressed in bacterial expression system assessed as residual activity at 1 uM by Kinomescan method relative to control
[15] = molecular target: Serine/threonine-protein kinase Nek1 (Homo sapiens) (UniProt Q96PY6); test: Inhibition of wild-type human partial length NEK1 (M1 to K278 residues) expressed in bacterial expression system assessed as residual activity at 1 uM by Kinomescan method relative to control
[16] = molecular target: Serine/threonine-protein kinase MARK2 (Homo sapiens) (UniProt Q7KZI7); test: Inhibition of wild-type human partial length MARK2 (M1 to R450 residues) expressed in bacterial expression system assessed as residual activity at 1 uM by Kinomescan method relative to control
[17] = molecular target: Mitogen-activated protein kinase 13 (Homo sapiens) (UniProt O15264); test: Inhibition of wild-type human full length p38-delta (M1 to L365 residues) expressed in bacterial expression system assessed as residual activity at 1 uM by Kinomescan method relative to control
[18] = molecular target: Serine/threonine-protein kinase pim-3 (Homo sapiens) (UniProt Q86V86); test: Inhibition of wild-type human partial length PIM3 (G16 to A317 residues) expressed in bacterial expression system assessed as residual activity at 1 uM by Kinomescan method relative to control
[19] = molecular target: SRSF protein kinase 2 (Homo sapiens) (UniProt P78362); test: Inhibition of wild-type human full length SRPK2 (M1 to S686 residues) expressed in bacterial expression system assessed as residual activity at 1 uM by Kinomescan method relative to control
[20] = molecular target: Serine/threonine-protein kinase 33 (Homo sapiens) (UniProt Q9BYT3); test: Inhibition of wild-type human full length STK33 (M1 to L514 residues) expressed in bacterial expression system assessed as residual activity at 1 uM by Kinomescan method relative to control
[21] = molecular target: Testis-specific serine/threonine-protein kinase 2 (Homo sapiens) (UniProt Q96PF2); test: Inhibition of TSSK2 (unknown origin) assessed as residual activity at 1 uM by Kinomescan method relative to control
[22] = molecular target: Tyrosine-protein kinase ZAP-70 (Homo sapiens) (UniProt P43403); test: Inhibition of wild-type human partial length ZAP70 (D20 to G299 residues) expressed in mammalian expression system assessed as residual activity at 1 uM by Kinomescan method relative to control
[23] = molecular target: Serine/threonine-protein kinase MRCK gamma (Homo sapiens) (UniProt Q6DT37); test: Inhibition of wild-type human partial length DMPK2 (S46 to S408 residues) expressed in bacterial expression system assessed as residual activity at 1 uM by Kinomescan method relative to control
[24] = molecular target: Serine/threonine-protein kinase LATS1 (Homo sapiens) (UniProt O95835); test: Inhibition of wild-type human partial length LATS1 (Q678 to V1130 residues) expressed in bacterial expression system assessed as residual activity at 1 uM by Kinomescan method relative to control
[25] = molecular target: Serine/threonine-protein kinase Nek5 (Homo sapiens) (UniProt Q6P3R8); test: Inhibition of wild-type human partial length NEK5 (M1 to M279 residues) expressed in bacterial expression system assessed as residual activity at 1 uM by Kinomescan method relative to control
[26] = molecular target: Dual specificity testis-specific protein kinase 1 (Homo sapiens) (UniProt Q15569); test: Inhibition of wild-type human full length TESK1 (R37 to S626 residues) expressed in bacterial expression system assessed as residual activity at 1 uM by Kinomescan method relative to control
Sequence of Dual specificity testis-specific protein kinase 1 (Homo sapiens) (Q15569 whole entry, looked up, the tested form may be a part): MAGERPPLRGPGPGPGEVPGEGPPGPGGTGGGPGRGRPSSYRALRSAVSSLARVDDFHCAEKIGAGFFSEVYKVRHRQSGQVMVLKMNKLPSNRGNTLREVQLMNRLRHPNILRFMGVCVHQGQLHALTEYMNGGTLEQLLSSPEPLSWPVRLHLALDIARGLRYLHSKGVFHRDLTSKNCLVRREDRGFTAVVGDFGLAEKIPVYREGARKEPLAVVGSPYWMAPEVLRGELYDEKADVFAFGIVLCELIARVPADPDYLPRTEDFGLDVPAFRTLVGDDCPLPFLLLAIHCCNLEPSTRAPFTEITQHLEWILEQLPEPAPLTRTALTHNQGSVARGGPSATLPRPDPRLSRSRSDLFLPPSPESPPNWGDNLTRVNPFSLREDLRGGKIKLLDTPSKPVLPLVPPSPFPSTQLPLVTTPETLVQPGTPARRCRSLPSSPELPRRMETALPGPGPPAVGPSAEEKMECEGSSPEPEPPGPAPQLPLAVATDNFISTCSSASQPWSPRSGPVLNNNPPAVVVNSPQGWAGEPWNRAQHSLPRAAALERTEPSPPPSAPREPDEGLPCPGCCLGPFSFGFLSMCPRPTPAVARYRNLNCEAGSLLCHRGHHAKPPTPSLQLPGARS

Sequence of G protein-coupled receptor kinase 5 (Homo sapiens) (P34947 whole entry, looked up, the tested form may be a part): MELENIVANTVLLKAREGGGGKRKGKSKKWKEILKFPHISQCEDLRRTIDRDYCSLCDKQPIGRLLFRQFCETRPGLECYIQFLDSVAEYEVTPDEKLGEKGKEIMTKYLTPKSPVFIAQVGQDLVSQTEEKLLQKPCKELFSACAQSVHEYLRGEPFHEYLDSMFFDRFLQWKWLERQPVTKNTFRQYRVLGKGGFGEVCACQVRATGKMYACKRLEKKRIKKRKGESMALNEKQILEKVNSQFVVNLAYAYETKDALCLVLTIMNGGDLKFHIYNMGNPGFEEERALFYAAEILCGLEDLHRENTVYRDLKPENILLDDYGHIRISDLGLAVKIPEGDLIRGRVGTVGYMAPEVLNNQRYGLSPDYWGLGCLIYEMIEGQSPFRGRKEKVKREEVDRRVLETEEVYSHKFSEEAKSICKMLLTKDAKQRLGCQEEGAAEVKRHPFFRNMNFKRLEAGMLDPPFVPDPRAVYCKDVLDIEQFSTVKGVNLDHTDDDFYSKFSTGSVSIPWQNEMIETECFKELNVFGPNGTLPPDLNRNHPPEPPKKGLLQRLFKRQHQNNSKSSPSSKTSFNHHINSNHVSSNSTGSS
Sequence of Serine/threonine-protein kinase haspin (Homo sapiens) (Q8TF76 whole entry, the tested form may be a part): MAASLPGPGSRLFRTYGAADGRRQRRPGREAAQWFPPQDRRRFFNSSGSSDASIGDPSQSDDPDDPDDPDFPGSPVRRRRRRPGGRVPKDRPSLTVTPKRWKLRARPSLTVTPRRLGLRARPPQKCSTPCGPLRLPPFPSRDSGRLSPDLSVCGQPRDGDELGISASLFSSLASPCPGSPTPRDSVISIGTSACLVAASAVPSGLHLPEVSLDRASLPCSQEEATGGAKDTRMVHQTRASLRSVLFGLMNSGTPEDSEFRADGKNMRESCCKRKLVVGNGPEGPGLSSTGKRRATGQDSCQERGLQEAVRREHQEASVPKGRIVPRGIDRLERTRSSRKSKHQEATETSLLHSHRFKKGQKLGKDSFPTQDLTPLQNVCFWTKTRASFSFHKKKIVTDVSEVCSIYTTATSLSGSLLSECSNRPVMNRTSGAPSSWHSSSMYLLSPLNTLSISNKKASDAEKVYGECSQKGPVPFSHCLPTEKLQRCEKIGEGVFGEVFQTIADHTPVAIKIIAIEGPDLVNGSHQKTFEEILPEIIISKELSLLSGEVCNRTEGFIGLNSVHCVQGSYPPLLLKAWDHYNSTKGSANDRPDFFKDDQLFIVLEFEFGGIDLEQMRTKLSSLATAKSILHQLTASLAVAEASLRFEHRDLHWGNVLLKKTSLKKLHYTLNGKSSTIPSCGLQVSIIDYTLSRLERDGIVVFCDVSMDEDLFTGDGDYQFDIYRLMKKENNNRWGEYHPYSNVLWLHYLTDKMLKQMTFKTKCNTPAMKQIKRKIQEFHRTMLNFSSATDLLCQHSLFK
Sequence of Serine/threonine-protein kinase 10 (Homo sapiens) (O94804 whole entry, looked up, the tested form may be a part): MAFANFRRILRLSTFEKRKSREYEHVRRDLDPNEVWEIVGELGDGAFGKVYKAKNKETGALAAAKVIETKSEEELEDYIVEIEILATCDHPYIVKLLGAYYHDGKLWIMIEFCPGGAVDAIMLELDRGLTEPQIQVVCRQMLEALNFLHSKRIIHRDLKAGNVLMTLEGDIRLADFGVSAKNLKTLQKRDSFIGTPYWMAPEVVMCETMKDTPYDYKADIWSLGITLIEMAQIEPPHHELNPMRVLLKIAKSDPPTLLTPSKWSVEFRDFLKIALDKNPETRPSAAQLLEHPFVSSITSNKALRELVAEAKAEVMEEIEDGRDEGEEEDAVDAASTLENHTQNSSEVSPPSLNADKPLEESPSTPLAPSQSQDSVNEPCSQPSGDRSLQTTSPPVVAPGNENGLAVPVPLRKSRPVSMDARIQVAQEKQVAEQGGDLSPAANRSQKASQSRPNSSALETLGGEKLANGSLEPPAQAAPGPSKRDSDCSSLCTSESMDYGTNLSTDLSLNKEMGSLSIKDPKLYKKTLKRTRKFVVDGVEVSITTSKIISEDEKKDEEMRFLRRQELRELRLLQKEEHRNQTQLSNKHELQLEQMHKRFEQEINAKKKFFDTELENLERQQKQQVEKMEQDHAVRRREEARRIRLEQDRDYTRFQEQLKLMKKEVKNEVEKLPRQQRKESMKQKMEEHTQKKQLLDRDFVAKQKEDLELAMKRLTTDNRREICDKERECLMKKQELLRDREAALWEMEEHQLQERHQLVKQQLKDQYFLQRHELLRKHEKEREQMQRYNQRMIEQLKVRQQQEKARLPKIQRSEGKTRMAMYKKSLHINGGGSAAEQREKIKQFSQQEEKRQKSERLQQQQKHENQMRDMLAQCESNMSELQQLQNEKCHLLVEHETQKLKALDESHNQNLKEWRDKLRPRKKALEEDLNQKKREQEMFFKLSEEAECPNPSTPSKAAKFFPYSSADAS
Sequence of Mitogen-activated protein kinase 13 (Homo sapiens) (O15264 whole entry, the tested form may be a part): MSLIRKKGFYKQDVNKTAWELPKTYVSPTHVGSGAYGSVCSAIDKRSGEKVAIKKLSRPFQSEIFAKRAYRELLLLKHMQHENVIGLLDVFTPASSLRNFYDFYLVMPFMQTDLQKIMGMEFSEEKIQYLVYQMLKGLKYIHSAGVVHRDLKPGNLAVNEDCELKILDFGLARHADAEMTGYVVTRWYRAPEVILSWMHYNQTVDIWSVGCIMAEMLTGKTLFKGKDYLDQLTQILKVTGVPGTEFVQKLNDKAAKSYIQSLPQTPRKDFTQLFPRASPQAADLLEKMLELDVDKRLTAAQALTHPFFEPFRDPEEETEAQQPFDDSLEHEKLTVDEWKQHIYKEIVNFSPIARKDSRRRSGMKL
Sequence of Ribosomal protein S6 kinase alpha-5 (Homo sapiens) (O75582 whole entry, looked up, the tested form may be a part): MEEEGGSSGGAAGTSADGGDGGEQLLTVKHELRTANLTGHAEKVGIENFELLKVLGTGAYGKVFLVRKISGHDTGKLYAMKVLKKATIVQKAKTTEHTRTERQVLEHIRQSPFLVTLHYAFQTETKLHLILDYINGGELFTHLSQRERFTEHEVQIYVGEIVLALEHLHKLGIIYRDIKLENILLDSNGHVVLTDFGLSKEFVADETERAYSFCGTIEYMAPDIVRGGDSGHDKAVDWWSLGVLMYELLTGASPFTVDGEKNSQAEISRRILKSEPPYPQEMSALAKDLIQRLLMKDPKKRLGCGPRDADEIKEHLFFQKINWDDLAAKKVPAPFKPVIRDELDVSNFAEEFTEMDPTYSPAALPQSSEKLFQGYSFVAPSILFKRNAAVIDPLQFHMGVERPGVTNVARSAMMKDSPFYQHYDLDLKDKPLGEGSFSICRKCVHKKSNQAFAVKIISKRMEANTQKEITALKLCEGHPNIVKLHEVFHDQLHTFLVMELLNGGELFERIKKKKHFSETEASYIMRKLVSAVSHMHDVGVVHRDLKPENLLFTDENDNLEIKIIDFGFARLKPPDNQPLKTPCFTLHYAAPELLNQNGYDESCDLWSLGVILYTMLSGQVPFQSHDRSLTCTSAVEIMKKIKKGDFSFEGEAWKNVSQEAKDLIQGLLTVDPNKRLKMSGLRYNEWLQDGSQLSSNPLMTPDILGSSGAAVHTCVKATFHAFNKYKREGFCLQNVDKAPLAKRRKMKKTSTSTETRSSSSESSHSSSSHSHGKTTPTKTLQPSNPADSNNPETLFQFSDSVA
Sequence of Casein kinase II subunit alpha' (Homo sapiens) (P19784 whole entry, looked up, the tested form may be a part): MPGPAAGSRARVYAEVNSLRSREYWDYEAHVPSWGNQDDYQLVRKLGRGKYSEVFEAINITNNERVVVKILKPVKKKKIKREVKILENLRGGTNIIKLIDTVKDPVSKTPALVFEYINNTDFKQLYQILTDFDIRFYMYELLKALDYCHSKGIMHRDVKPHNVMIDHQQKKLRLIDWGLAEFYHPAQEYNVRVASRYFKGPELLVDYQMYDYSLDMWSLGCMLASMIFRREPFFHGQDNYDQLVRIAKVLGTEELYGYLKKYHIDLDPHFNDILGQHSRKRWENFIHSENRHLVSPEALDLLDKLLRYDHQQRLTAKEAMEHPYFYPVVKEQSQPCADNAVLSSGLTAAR

CCOc1nc(Nc2ccc(C(=O)N3CCOCC3)cc2OC)nc2[nH]ccc12
Activity [1]: 104% | Activity [2]: 92.1% | Activity [3]: 86.1% | Activity [4]: 103% | Activity [5]: 94.6% | Activity [6]: 97.8% | Activity [7]: 39.5% | Activity [8]: 92.6% | Activity [9]: 89.5% | Activity [10]: 97.3% | Activity [11]: 92.7% | Activity [12]: 102% | Activity [13]: 97.6% | Activity [14]: 99.3% | Activity [15]: 90.8% | Activity [16]: 96% | Activity [17]: 109% | Activity [18]: 99.9% | Activity [19]: 82% | Activity [20]: 49.5% | Activity [21]: 20.9% | Activity [22]: 124% | Activity [23]: 106% | Activity [24]: 101% | Activity [25]: 94.8% | Activity [26]: 104%

From ChEMBL document CHEMBL4715821, “Discovery of 4-ethoxy-7H-pyrrolo[2,3-d]pyrimidin-2-amines as potent, selective and orally bioavailable LRRK2 inhibitors” (Bioorg Med Chem Lett, 2018)
